Experimental data reported in patent US12048686B2, “Compositions and methods for activating NRF2-dependent gene expression” (The University of Chicago, priority 2018, dated 2024).

Columns and labels:
20 line panel = experiment: Viability in 20 cell line panel correlated with CCLE mRNA levels; type: cell-based
Experimental: FIG. 36A-B. Viability assays performed in each cell line with compound treatment with CBR-470-1. Concentrations ranging from 0.1 to 30 micromolar for 48 hr. Viability was measured using Cell titer glo ATP quantification assay. Representative curves for three cell lines at 48 are shown on the left in (A). Table of 20 cell line IC50 values are shown in (B).
It was analyzed whether 1,3-BPG, which is directly metabolized by PGK1, could be involved in signaling to the KEAP1-NRF2 pathway via phosphoglyceryl-lysine (pgK) modification of KEAP1. […] Viability assays were performed in IMR32, OVCAR3, and A549 cell lines with compound treatment with CBR-470-1. Concentrations ranging from 0.1 to 30 micromolar for 48 hr. Viability was measured using Cell titer glo ATP quantification assay. Representative curves for three cell lines at 48 are shown in (FIG. 36A). Table of 20 cell line IC50 values are shown in (FIG. 36B).
Each point in FIG. 37 represents the correlation value (R^2) between cell line IC50 value (i.e. sensitivity) to CBR-470 plotted against the relative mRNA level (Z-score) for that cell line, and all other cell lines in the 20 line panel. mRNA levels were curated from the cancer cell line encyclopedia (CCLE).

GAPDH = GAPDH (Homo sapiens, UniProt P04406); experiment: GAPDH equilibrium in the GAPDH/PGK1 coupled assay; type: biochemical; conditions: without PGK1
Text: FIG. 6A-D. CBR-470-1 inhibits PGK1 in vitro and in situ. (a) Schematic of the GAPDH/PGK1 coupled assay. Pre-equilibration of the GAPDH reaction (top left) results in an NAD^+/NADH equilibrium, which upon addition of PGK1 and ADP pulls the reaction to the right producing more NADH. Monitoring NADH absorbance after addition of PGK1 (bottom right) can be used to monitor PGK1 activity in the forward direction (right). […] (c, d) Relative level of central metabolites in IMR32 cells treated with viral knockdown of PGK1 for 72 hours (c) (n=4) and with CBR-470-1 relative DMSO alone for the indicative times (d) (n=3). Each metabolite is normalized to the control condition at each time point. Data shown represent mean±SEM of biologically independent samples.
Recombinant PGK1 assay. PGK1 enzymatic activity in the forward direction was measured with a coupled enzymatic assay^34. Three PGK1 conditions were prepared by dissolving recombinant PGK1 in potassium phosphate buffer (10 mM KH2PO4, 10 mM MgSO4, pH 7.0), and transferring the aliquots of PGK1 solution to the microtubes being treated with same amount of DMSO and indicated concentrations of CBR-470-1. Final concentration of PGK1 is 20 ng/mL and DMSO is 1% for each sample. […] The change in absorbance at 340 nm at room temperature was measured every 20 seconds for 45 minutes, by Tecan Infinite M200 plate reader. […]

HCT116 = experiment: Viability of HCT116 with genetic manipulation of GLO1 and PGK1; type: cell-based
IMR32 cells = experiment: Targeted LC-MS measurement of cellular MGx levels in IMR32 cells; type: cell-based; conditions: relative to DMSO
Text: FIG. 8A-H. MGx and glyoxylase activity regulates NRF2 activation. CBR-470-1 causes elevated MGx levels in cells. (a) Schematic depicting chemical derivatization and trapping of cellular MGx for analysis by targeted metabolomics using two unique fragment ions. (b, c) Daughter ion fragments (b) and resulting MS/MS quantification of MGx levels (c) in IMR32 cells treated with CBR-470-1, relative to DMSO (n=4). (d) Quantitative LC-MS/MS measurement of cellular MGx levels in IMR32 cells treated for 2 hours with CBR-470-1 or co-treated for 2 hours with CBR-470-1 and NAC (2 mM) relative to DMSO (n=4).
Quantitative Metabolomic Profiling. […] Metabolite peak transitions and retention times are listed in Table 2 and were confirmed by running standards for measured glycolytic, PPP, CAC and co-factor metabolites. 2-phosphoglycerate and 3-phosphoglycerate isomers were quantified in aggregate (2PG/3PG). Relative metabolite abundance was quantified by integrated peak area for the given MRM-transition, and all metabolite levels were normalized to internal standard extracted ion intensity values for d3-serine. These parameters were used to quantify all metabolites, with the exception of 1,3-BPG and MGx, which required chemical derivitization to stable intermediates prior to LC-MS/MS quantification, as previously reported^20, 33. […]

Chain of GAPDH (P04406 whole entry, species assumed): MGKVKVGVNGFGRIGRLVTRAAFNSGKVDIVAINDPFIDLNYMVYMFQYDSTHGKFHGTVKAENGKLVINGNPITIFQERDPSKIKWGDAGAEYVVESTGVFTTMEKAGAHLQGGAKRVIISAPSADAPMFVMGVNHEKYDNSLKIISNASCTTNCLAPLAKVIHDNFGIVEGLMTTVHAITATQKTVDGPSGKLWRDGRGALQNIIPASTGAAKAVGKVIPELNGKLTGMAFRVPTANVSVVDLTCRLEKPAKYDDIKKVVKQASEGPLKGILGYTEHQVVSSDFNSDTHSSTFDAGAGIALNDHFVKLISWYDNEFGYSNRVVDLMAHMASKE

In the case of `CC(C)CN[C@H]1CS(=O)(=O)C[C@@H]1S(=O)(=O)c1ccc(Cl)cc1` [CBR-470-1], the “sensitivity (IC50) versus GLO1 mRNA level” value (20 line panel) is reported as “high GLO1 exhibit higher sensitivity”, the “sensitivity (IC50) versus NRF2 target gene expression” value (20 line panel) is reported as “lower NRF2 target gene expression show increased sensitivity” and the GAPDH equilibrium (GAPDH) is reported as “does not affect the GAPDH equilibrium alone”. For the same molecule, the “viability sensitivity of PGK1 knockdown cells” value (HCT116; HCT116, PGK1 knockdown) was “more sensitive to CBR-470-1 metabolic inhibition”, the “viability sensitivity of cells acclimated to low GLO1 levels” value (HCT116; HCT116, low GLO1) was “resistance to CBR-470-1 metabolic inhibition” and the “cellular MGx levels” value (IMR32 cells) was “significant elevation of cellular MGx levels in the first few hours of treatment”.
